The record followed here is publication PMC7037447, “Syntheses of L-Rhamnose-Linked Amino Glycerolipids and Their Cytotoxic Activities against Human Cancer Cells” (Molecules, 2020).

Each structure is given as a SMILES string. Like-named read-outs stand apart in the source and are kept apart here.

In series [1] the test system is DU-145. Kind of series: MTS cell viability assay, 48 h. Format: cell-based, human. To be noted: Homo sapiens; DU-145, 48 h, MTS; read-out: CC50. Here is the method: (§1) The cells were incubated with increasing concentrations of the compounds (0–30 µM) for 48 h followed by assessment of cell viability using the MTS assay. […] This compound carries a primary amino group at the sn-3 position of the glycerolipid and L-rhamno sugar at the sn-2 position via an α-rhamnosidic linkage.
(§2) The cell lines were cultured from frozen stocks originally obtained from ATCC (Manassas, VA, USA). MDA-MB-231, JIMT-1, DU145, MDA-MB-468, Hs578t and MDA-MB-453 were grown in DMEM medium supplemented with 10% FBS. BT-474 cells were grown in DMEM/F12 medium supplemented with 10% FBS. MiaPaCa2 was cultured in DMEM supplemented with 10% FBS and 2.5% horse serum. All the media contained penicillin/streptomycin. U-251 and U-87 in Eagle MEM supplemented by 10% FBS, 1% Non-essential amino acids, 1 mM sodium pyruvate and 2 mM glutamine. BT-549 was cultured in RPMI 1640 medium supplemented with 10% FBS.
(§3) The effects of the GAELs on the viability of the epithelial cancer cell lines were determined as previously described. Briefly, equal numbers of the cells were dispersed into 96-well plates. After 24 h, the cells were incubated with the compounds (0–30 µM) for 48 h. MTS reagent [3-(4,5-dimethylthiazol-2-yl)-5-(3-carboxymethoxyphenyl)-2-(4-sulfophenyl)-2H-tetrazolium, inner salt; Promega, Madison, WI, USA] (20% v/v) was subsequently added and the plates were incubated for 1–4 h in a CO2 incubator followed by measurement of the medium at OD490 with a plate reader (Molecular Devices).

Series [2] relates to MiaPaCa2. Briefly: MTS cell viability assay, 48 h. The class given is cell-based, human. Particulars: Homo sapiens, MIA PaCa-2; MiaPaCa2, 48 h, MTS; read-out: CC50. Here is the method: as §1, §2, §3
In general terms: Tetrazolium assays rely on reduction of a dye to a coloured formazan, in cell work by metabolically active cells.

The test system of series [3] is PC-3. Briefly: MTS cell viability assay, 48 h. Format: cell-based, human. Particulars: Homo sapiens; PC-3, 48 h, MTS; read-out: CC50. The protocol:
as §1
as §3, with “Devices). Wells with media but no cells were treated in similar fashion and the values utilized as blank.” for “Devices).”

The test system of series [4] is human epithelial cancer cell lines: breast (MDA-MB-231, JIMT-1), pancreas (MiaPaCa2) and prostate (DU-145, PC-3). Briefly: MTS cell viability assay, 48 h, across the panel of cell lines. To be noted: 48 h, 48 h, MTS; for CC50: range or bound over all cell lines, read-out: CC50 values across the cell lines. Format: cell-based. Here is the method: as §1, §2
as §3, with “Devices). Wells with media but no cells were treated in similar fashion and the values utilized as blank.” for “Devices).”

Series [5] deals with BT474 (hormone receptor positive breast cancer cells). Kind of series: MTS cell viability assay, 48 h. The class given is cell-based. Particulars: Homo sapiens, BT-474. Here is the method:
(§4) Concentrations of compound 3 between 6–15 µM were sufficient to kill all the triple negative cell lines with the exception of MDA-MB-453 where viability was inhibited by 60% at the highest concentration tested. 30 µM of 3 was required for complete loss of viability of the hormone sensitive breast cancer BT474 cell line.
as §2
(§5) The effects of the GAELs on the viability of the epithelial cancer cell lines were determined as previously described. Briefly, equal numbers of the cells were dispersed into 96-well plates. After 24 h, the cells were incubated with the compounds (0–30 µM) for 48 h. […] (20% v/v) was subsequently added and the plates were incubated for 1–4 h in a CO2 incubator followed by measurement of the medium at OD490 with a plate reader (Molecular Devices). […]

Series [6] deals with MDA-MB-453. Kind of series: MTS cell viability assay, 48 h. The class given is cell-based, human. Here is the method: as §4, §2, §5
In series [7] the test system is DU-145. Kind of series: Cell membrane integrity, ethidium homodimer-1 (EthD-1) staining. The class given is cell-based. To be noted: DU-145, 10 µM, 4–6 h. Here is the method: (§6) After determining that the mechanism of cell death of compound 3 is independent of caspases-mediated apoptosis, we evaluated if cell death was due to membrane disruption or lysis using the cell impermeant ethidium homodimer-1 (EthD-1) dye that emits red fluorescence upon binding to DNA [13, 14]. DU-145 and JIMT-1 were treated with compound 3 at 10 and 15 µM, respectively. After 4–6 h, the cells were treated with EthD-1 dye and monitored under fluorescence microscopy.
(§7) Equal numbers of JIMT-1 and DU145 cells were dispersed into 96-well plates. After 24 h the cells were incubated with varying concentration of compounds 3 or 4 (4–6 µM) for 5–6 h. Subsequently, 2 µM of the cell membrane impermeant dye, ethidium homodimer-1 (EthD-1 (Molecular Probes, Eugene, OR, USA) that emits red fluorescence upon binding to DNA was added and the cells analysed by fluorescence microscopy. EthD-1 staining was compared to negative controls with no treatment and positive control treated with 0.01% Triton X-100 for 10 min.
(§8) Figure 5 Evaluation of effect of compound 3 on cell membrane of DU-145 and JIMT-1 cell lines using cell impermeant ethidium homodimer-1 (EthD-1) dye that emits red fluorescence upon binding to DNA.

Series [8] concerns JIMT-1. The description is as above. Particulars: JIMT-1, 15 µM, 4–6 h. The class given is cell-based. Here is the method: as §6, §7, §8
The nature of series [9]: Hemolytic assay. Format: cell-based. Particulars: sheep, ovine erythrocytes (washed suspension), pH 7.4, relative to 1% ammonium hydroxide = 100%, read-out: Highest hemolysis observed. Here is the method: To further evaluate the membrane lytic properties of compound 3, we investigated its capacity to lyse ovine erythrocytes. The highest hemolysis observed with compound 3 was about 6.6% at 100 µM compared to the 1% ammonium hydroxide positive control (Figure 6).
The hemolytic activity of the GAEL analogs was evaluated using ovine erythrocyte. Sheep whole blood was collected from a slaughter house into a vessel containing disodium EDTA ([…]) in a buffered saline (10 mM Tris, 150 mM NaCl, pH 7.4). The erythrocytes were prepared and washed with buffered saline as previously reported. For the assay, the erythrocyte suspension, varying amounts of the GAEL drugs or vehicle were pipetted into 1.5 mL microcentrifuge tubes to give a final volume of 1500 µL and cell density of 2.5 × 10^8 cells/mL. The suspensions were incubated with gentle shaking in Eppendorf thermomixer for 30 min. […] 200 µL of the supernatant was dissolved in 1800 µL of 0.5% NH4OH and the optical density (OD) was recorded using 1 mL cuvette at 540 nm in a spectrophotometer. […] The % hemolysis was calculated using the optical density (OD) values as shown below in Equation (1):% hemolysis = (X − 0%)/(100% − 0%)(1) where X is the OD values of the drug(s) at varying concentration.
Figure 6 Hemolytic properties of GAEL 3 using freshly isolated ovine erythrocytes. […] The values were determined as % of control.

In general, CC50 refers to the concentration giving 50% cytotoxicity.

For `CCCCCCCCCCCCCCCCOCC(CN)OC1OC(C)C(O)C(O)C1O` [Compound 3, 3-Amino-1-O-hexadecyloxy-2R-(O–α-L-rhamnopyranosyl)-sn-glycerol], the CC50 in series [1] is 8.2 µM; in [2], 8.5 µM; in series [3], 11 µM; in series [4] (Homo sapiens) it was 4.8 to 14 µM; in series [4], 4.8 to 11 µM; in [5], 14 µM. The same compound showed a half-maximal cytotoxic concentration (CC50) in [6] (Homo sapiens, MDA-MB-453) of 13.8 µM. In addition, the “Concentration range giving greater than 90% loss of cell viability” value in series [4] (all the cell lines) is 7.5 to 15.0 µM. For the same compound, the Viability inhibited in [6] (MDA-MB-453, at the highest concentration tested) turned out to be 60%. Also, the “Cell membrane lysis (EthD-1 staining)” value in series [7] and in [8] was “no significant cell membrane lysis” throughout. Moreover, the hemolysis at 30 min, 100 µM in [9] was ~6.6%.
